Reference: patent US20020127281A1, “Stabilized hyrogen peroxide solutions” (priority 2000, published 2002)

Experiment: stabilization of peroxy compounds by the present stabilizer system
Assay type: physicochemical
From the text: Trace amounts of peroxy compounds stabilized with a hydrogen peroxide stabilizer, especially diethylene triamine penta(methylene phosphonic acid) or 1-hydroxyethylidene-1,1-diphosphonic acid may be utilized as a preservative for drugs, eyewashes, or other solutions containing an active ingredient designed to be used in the ocular environment. The preservative according to the present invention may be used in the ocular environment. Furthermore, the preservative according to the present invention may be used in any ophthalmic solution as long as the active ingredient in that solution is compatible with trace amounts of the peroxy compounds. Also, virtually any peroxy compound may be used so long as it is hydrolyzed in water to produce hydrogen peroxide. Examples of such sources of hydrogen peroxide, which provide an effective resultant amount of hydrogen peroxide, include sodium perborate decahydrate, sodium peroxide and urea peroxide. […] Hydrogen peroxide concentrations from about 2 ppm to about 1000 ppm are useful in the present invention. Therefore, peroxy compounds that generate hydrogen peroxide from about 2 ppm to about 1000 ppm are useful in the present invention. More preferably, the concentration of hydrogen peroxide from is about 10 ppm to about 1000 ppm.

In the case of `CC(=O)OO` [peracetic acid], the “stabilization by the present system” value is reported as “cannot be stabilized”.
